This is an account of results in the supplement of paper PMC10307832.

Assay in all cases: relative viability (nuclei count vs DMSO), 5 days (fraction); higher = more cells survive
Compound in assay [1]: COc1cc2/c(=N/c3ccc(Br)cc3F)nc[nH]c2cc1OCC1CCN(C)CC1 [Vandetanib] + C[C@]1(O)C[C@@H](c2nc(-c3ccc4ccc(-c5ccccc5)nc4c3)c3c(N)nccn32)C1 [Linsitinib] (partner 1 µM)
A digest of the protocol: (§1)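 Relative viability divides the nuclei count in treated wells by that in vehicle wells. Lung cancer cell lines were seeded in 1536-well plates, dosed by pin tool the next day, and fixed and stained after 5 days in one step with final 0.05% Triton X-100, 1% formaldehyde and 1 ug/ml Hoechst. Dosing was a single drug or a fixed anchor-drug dose plus five library-drug doses (not always all listed) in √10 steps, and values are medians of duplicate plates imaged at 4×.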

Compound in assay [2]: C1=CC=C2C(=C1)N=C(S2)C(C#N)C3=NC(=NC=C3)NCCC4=CN=CC=C4 + COc1cccc2cc(-c3nc([C@H]4CC[C@H](C(=O)O)CC4)n4ncnc(N)c34)[nH]c12 [OSI-027] (partner 0.5 µM)
A digest of the protocol: as §1

Compound in assay [3]: COc1cc(N2CCC(N3CCN(C)CC3)CC2)ccc1Nc1ncc(Cl)c(Nc2ccccc2S(=O)(=O)C(C)C)n1 [NVP-TAE684] + CC(C)C[C@H](NC(=O)[C@H](Cc1ccccc1)NC(=O)c1cnccn1)B(O)O [Bortezomib] (partner 0.002 µM)
In short, it runs like this: as §1

Compound in assay [4]: C#Cc1cccc(Nc2ncnc3cc(OC)c(OCCCCCCC(=O)NO)cc23)c1 [CUDC-101] + CCNC(=O)c1noc(-c2cc(C(C)C)c(O)cc2O)c1-c1ccc(CN2CCOCC2)cc1 [Luminespib] (partner 0.01 µM)
A digest of the protocol: as §1

Regarding UMC-11, the relative viability in assay [1] (first compound 0.02 µM) is 0.978; in assay [1] (first compound 0.06325 µM) it was 0.994; in assay [1] (first compound 0.2 µM) it was 0.97; in assay [1] (first compound 0.6325 µM), 0.885; in assay [1] (first compound 2 µM), 1; in assay [2] (first compound 0.005 µM), 0.408. For the same cell line, the relative viability in assay [2] (first compound 0.01581 µM) turned out to be 0.493; in assay [2] (first compound 0.05 µM), 0.445; in assay [2] (first compound 0.1581 µM), 0.468; in assay [2] (first compound 0.5 µM), 0.35; in assay [3] (first compound 0.2 µM), 0.642; in assay [3] (first compound 0.6325 µM), 0.97. Further, the relative viability in assay [3] (first compound 2 µM) is 0.393; in assay [4] (first compound 0.01 µM), 1.22; in assay [4] (first compound 0.03162 µM), 0.879; in assay [4] (first compound 0.1 µM), 1.03; in assay [4] (first compound 0.3162 µM) it was 0.43; in assay [4] (first compound 1 µM), 0.165.
